ChEMBL document CHEMBL1150852, “Coumarins isolated from Angelica gigas inhibit acetylcholinesterase: structure-activity relationships” (J Nat Prod, 2001)

Target: Acetylcholinesterase (Homo sapiens, UniProt P22303)
Assay: Inhibition of AChE by spectrophotometry

Acetylcholinesterase, sequence (P22303 whole entry): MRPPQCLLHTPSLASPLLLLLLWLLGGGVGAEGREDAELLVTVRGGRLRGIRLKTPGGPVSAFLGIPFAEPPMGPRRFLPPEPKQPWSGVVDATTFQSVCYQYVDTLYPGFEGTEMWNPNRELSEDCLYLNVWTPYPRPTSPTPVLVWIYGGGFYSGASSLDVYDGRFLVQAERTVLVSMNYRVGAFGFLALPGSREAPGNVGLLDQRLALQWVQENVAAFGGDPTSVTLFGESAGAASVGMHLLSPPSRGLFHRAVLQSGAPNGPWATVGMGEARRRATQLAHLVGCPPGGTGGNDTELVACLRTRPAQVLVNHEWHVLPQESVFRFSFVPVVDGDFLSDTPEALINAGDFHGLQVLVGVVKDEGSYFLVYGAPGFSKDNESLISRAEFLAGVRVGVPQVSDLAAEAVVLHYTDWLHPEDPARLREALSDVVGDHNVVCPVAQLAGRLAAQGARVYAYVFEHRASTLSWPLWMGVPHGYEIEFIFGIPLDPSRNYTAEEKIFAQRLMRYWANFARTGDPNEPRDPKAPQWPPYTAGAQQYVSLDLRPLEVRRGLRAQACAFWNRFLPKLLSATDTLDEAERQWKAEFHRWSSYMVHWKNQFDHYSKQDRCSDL

| Compound | IC50 |
| --- | --- |
| COc1c2occc2cc2ccc(=O)oc12 [METHOXSALEN] | 54 µM |
| CC(C)(O)C(=O)Cc1cc2ccc(=O)oc2cc1O [PEUCEDANONE] | 180 µM |
| CC1(C)C=Cc2cc3ccc(=O)oc3cc2O1 [XANTHYLETIN] | 150 µM |
| CC(C)(O[C@@H]1O[C@H](CO)[C@@H](O)[C@H](O)[C@H]1O)[C@H]1Cc2cc3ccc(=O)oc3cc2O1 [NODAKENIN] | 68 µM |
| COc1cc(OCC=C(C)C)c2ccc(=O)oc2c1 | 240 µM |
| CC(C)(O)[C@@H]1Cc2cc3ccc(=O)oc3cc2O1 [MARMESIN] | 67 µM |
| CC(C)=CC(=O)O[C@H]1Cc2cc3ccc(=O)oc3cc2OC1(C)C [DECURSIN] | 390 µM |
| CC(C)=CCOc1c2ccoc2cc2oc(=O)ccc12 [ISOIMPERATORIN] | 69 µM |
| C=C(C)[C@H](O)Cc1cc2ccc(=O)oc2cc1O | 130 µM |
| CC(C)=CCc1cc2ccc(=O)oc2cc1O [DEMETHYLSUBEROSIN] | 2400 µM |
